# In patent publication US20260000637A1, “METHOD OF IMPROVING SLEEP” (VANDA PHARMACEUTICALS INC., priority 2019, published 2026):
# Where “and” joins values, the source holds several entries; their conditions need not be identical. Equal entries are not always repeated.
# Experiments:
# [1] = test system: individuals diagnosed with DSWPD and having at least one copy of the rs184039278 CRY1 allele; test: Sleep parameters after 20 mg tasimelteon before bedtime, by rs184039278 CRY1 genotype; assay type: in vivo, human
# Procedure: In a study of genetic variations associated with sleep-wake patterns, Applicant found a significant association between the rs184039278 CRY1 allele and efficacy of treatment with tasimelteon. […] Both groups were treated with 20 mg of tasimelteon before bed.
# [2] = test system: totally blind patients with Non-24; details: cited from earlier work
# [3] = individual DSWPD patients, rs184039278 CRY1 G/T, 20 mg tasimelteon prior to bedtime
smiles,measurement,setting,value
"CCC(=O)NC[C@@H]1C[C@H]1c1cccc2c1CCO2 [tasimelteon, Tasimelteon]","total sleep time (TST), WT versus MT individuals (FIG. 1)","[1]; WT (no rs184039278 CRY1 allele) compared to MT (at least one copy), both 20 mg tasimelteon before bed",both lower and more variable than for MT individuals
same,Total Sleep Time In First Two-Thirds Of Night,[1]; [3],308 min and 293.5 min
same,percentage of total sleep time (sleep efficiency),[1]; [3],96 and 91
same,"sleep parameters (LPS, sleep efficiency, REM sleep duration, TST, WASO)","[1]; individuals having at least one copy of the rs184039278 CRY1 allele, tasimelteon before bedtime",improvements in one or more sleep parameters
same,efficacy on circadian timing system and sleep,[2],phase advance the circadian timing system (CTS) and to improve nighttime sleep and decrease daytime sleep
